How the values were obtained:
[1] = test system: Penicillium solitum Wild strain; assay: agar diffusion test with impregnated cellulose discs; type: cell-based; settings: incl. 6 mm disc
[2] = test system: Fusarium spp.; assay: field tests on affected asparagus, Fusarium spp. in roots; type: in vivo; settings: 60 days after application, compared to untreated control
Method: (§1) The treatment doses used were 250, 500 and 1000 ppm of both active principles (PT and PTSO), and the initial incidence of the pathogen was compared with its presence 60 days after its application.
(§2) To analyze the growth of the crops infected by Fusarium spp. after the treatments, root and soil samples were taken and tests were performed in the laboratory to investigate the incidence of the pathogen in the roots and soil. The cultivation media used were potato dextrose agar and rose bengal agar (to prevent the invasive character of the Mucoralean fungi).
(§3) The soil analysis was conducted by sequential dilutions of the soils in physiological serum with a subsequent sowing in the above mentioned media. The analysis of the roots was performed after dissection of the infected tissues, which were deposited in triplicate on filter paper located above both media, and their evolution over time was studied.
(§4) The data are expressed as a percentage of elimination and reduction as a function of the treatment dose compared to the untreated control samples.

[3] = test system: Enteroccus faecalis ATCC 29212; assay: agar diffusion test with impregnated cellulose discs; type: cell-based; settings: incl. 6 mm disc
[4] = test system: mixture of fungi (P. expansum, P. italicum, P. digitatum and A. alternata); assay: disinfection of rooms by means of fogging
[5] = test system: Fusarium spp.; assay: field tests on affected asparagus, Fusarium spp. in the soil; type: in vivo; settings: for % Reduction / % elimination: soil, 60 days after application, compared to untreated control
Method: as §1, §2, §3, §4

[6] = test system: R. stolonifer; assay: disinfection of artificially contaminated containers by drencher; design: species or system Rhizopus stolonifer; settings: drencher 30 seconds
Method: A test of the disinfection of containers (fruit boxes and crates) was conducted in which a level of artificial contamination was created by means of controlled inoculation, with the objective of determining optimum doses of application to achieve a satisfactory disinfection. First the containers (made of wood and plastic) were disinfected with sodium hypochlorite, and they were then artificially contaminated via controlled inoculations with different fungi characteristic of the fruit and vegetable processing sector. For this purpose, isolated wild strains were used which, after sporulation, were collected to create a suspension of mixed spores of various fungi (Penicillium expansum, Penicillium italicum, Penicillium digitarum and Alternario alternata) and, separately in simultaneous tests (as a result of its higher rate of growth and its invasive character), a suspension of Rhizopus stolonifer. […] After this fogging, the containers were allowed to dry. The containers were then sampled to determine the level of initial contamination achieved (by means of contact plates containing Rose Bengal agar). The containers were then treated in a pilot line […]. The hold time of the containers under the showers was 30 seconds, and the test doses were 750 ppm and 1050 ppm for PTS and 2000 ppm and 5000 ppm in the case of PTSO. After exiting the showers, the treated containers were allowed to dry, and were again sampled using contact plates with Rose Bengal agar to determine the final level of contamination. The sampling unit was 3 containers and 3 plates per repetition.

[7] = test system: Bacillus cereus ATCC 10876; assay: agar diffusion test with impregnated cellulose discs; type: cell-based; settings: incl. 6 mm disc
[8] = test system: Ralstonia solanacearum Strain GM1000; type: cell-based; settings: in vitro tests
[9] = test system: Escherichia coli ATCC 25922; assay: agar diffusion test with impregnated cellulose discs; type: cell-based; settings: incl. 6 mm disc
[10] = test system: Penicillium expansum; assay: reduction of spores in suspension in absence or presence of organic matter; type: cell-based; settings: PTS 750 ppm 1 min.
From the text: (§5) In addition, under the real conditions of a disinfecting bath for boxes, crates and containers, as well as for the disinfection of rooms and work surfaces, organic material (soil residue, rotten fruit, leaves etc.) is generally present, which can reduce the action of the disinfectant agent. Therefore, the effectiveness of PTS and PTSO has also been assessed in the presence of organic matter on two pathogens that cause post-harvest rot of stone fruit (Penicillium expansum) and citrus fruit (Penicillium digitatum).

[11] = test system: Penicillium digitatum; assay: as above; type: cell-based; settings: PTS 750 ppm 1 min.
From the text: as §5

[12] = test system: post-harvest rot; assay: post-harvest rot of oranges originating directly from the field (not inoculated); type: in vivo
Method: Once the oranges had been artificially contaminated, the treatments were conducted by immersing the oranges in solutions of PTS and PTSO prepared at doses of 1600 and 2500 ppm, and were stored at 20° C.
The assessment of the effectiveness of PTS and PTSO comprised counting of the number of fruits affected by rot in the inoculated zone, to determine the percentage of fruit affected for each treatment and fungus inoculated, and expressing this effectiveness as a percentage of reduction of the affected fruit.
On the basis of the results obtained by the application of PTS and PTSO to oranges of the Navelina variety originating directly from the field, both products, applied in the specified doses, are effective in the control of post-harvest rot. Both PTS and PTSO in turn reduce by 50% the quantity of fruit affected at the end of the refrigeration period (28 days at a temperature of 5° C.) compared to the untreated fruit, as a result of which they are an effective alternative to the synthetic treatments conventionally used.

[13] = organic matter Absence, 0 hours
[14] = organic matter Absence, 2 hours
[15] = organic matter Absence, 3 hours
[16] = organic matter Presence, 0 hours
[17] = organic matter Presence, 1 hour
[18] = organic matter Presence, 2 hours
[19] = organic matter Presence, 3 hours

## CCCS[S+]([O-])CCC (stereo not drawn) [PTS, Propyl Propyl Thiosulfinate]
[1]; 60 ppm
  diameter of the microbial inhibition halo: 0 mm
[1]; 125 ppm
  diameter of the microbial inhibition halo: 11 mm
[1]; 250 ppm
  diameter of the microbial inhibition halo: 16 mm
[1]; 500 ppm
  diameter of the microbial inhibition halo: 28 mm
[1]; 1000 ppm
  diameter of the microbial inhibition halo: 35 mm
[2]; 250 ppm
  % Reduction: 60%
  % elimination: 0%
[2]; 500 ppm
  % Reduction: 14%
  % elimination: 57%
[2]; 1000 ppm
  % Reduction: 13%
  % elimination: 58%
[3]; 60 ppm
  diameter of the microbial inhibition halo: 15 mm
[3]; 125 ppm
  diameter of the microbial inhibition halo: 22 mm
[3]; 250 ppm
  diameter of the microbial inhibition halo: 26 mm
[3]; 500 ppm
  diameter of the microbial inhibition halo: 30 mm
[3]; 1000 ppm
  diameter of the microbial inhibition halo: 30 mm
[4]; 750 ppm, Environment
  Reduction in the population of the mixture of fungi expressed in %: 89%
[4]; 750 ppm, Walls
  Reduction in the population of the mixture of fungi expressed in %: 96%
[4]; 1050 ppm, Environment
  Reduction in the population of the mixture of fungi expressed in %: 100%
[4]; 1050 ppm, Walls
  Reduction in the population of the mixture of fungi expressed in %: 97%
[5]; 250 ppm
  % Reduction: 0%
  % elimination: 100%
[5]; 500 ppm
  % Reduction: 12.5%
  % elimination: 87.5%
[5]; 1000 ppm
  % Reduction: 0%
  % elimination: 100%
[5]; Fusarium spp. in asparagus, disinfection of agricultural soil
  effectiveness of the application (in words): highly effective
[6]; 750 ppm, Plastic container
  Reduction of the population (%): 100%
[6]; 750 ppm, Wood container
  Reduction of the population (%): 94%
[6]; 1050 ppm, Plastic container
  Reduction of the population (%): 99%
[6]; 1050 ppm, Wood container
  Reduction of the population (%): 100%
[7]; 60 ppm
  diameter of the microbial inhibition halo: 15 mm
[7]; 125 ppm
  diameter of the microbial inhibition halo: 20 mm
[7]; 250 ppm
  diameter of the microbial inhibition halo: 25 mm
[7]; 500 ppm
  diameter of the microbial inhibition halo: 27 mm
[7]; 1000 ppm
  diameter of the microbial inhibition halo: 35 mm
[8]
  effectiveness of the application (in words): highly effective
[9]; 60 ppm
  diameter of the microbial inhibition halo: 12 mm
[9]; 125 ppm
  diameter of the microbial inhibition halo: 17 mm
[9]; 250 ppm
  diameter of the microbial inhibition halo: 24 mm
[9]; 500 ppm
  diameter of the microbial inhibition halo: 25 mm
[9]; 1000 ppm
  diameter of the microbial inhibition halo: 27 mm
[10]; [13]
  Reduction of the population (%): 68%
[10]; organic matter Absence, 1 hour
  Reduction of the population (%): 82%
[10]; [14]
  Reduction of the population (%): 45%
[10]; [15]
  Reduction of the population (%): 68%
[10]; [16]
  Reduction of the population (%): 73%
[10]; [17]
  Reduction of the population (%): 41%
[10]; [18]
  Reduction of the population (%): 36%
[10]; [19]
  Reduction of the population (%): 18%
[11]; [13]
  Reduction of the population (%): 100%
[11]; organic matter Absence, 1 hour
  Reduction of the population (%): 100%
[11]; [14]
  Reduction of the population (%): 100%
[11]; [15]
  Reduction of the population (%): 100%
[11]; [16]
  Reduction of the population (%): 100%
[11]; [17]
  Reduction of the population (%): 100%
[11]; [18]
  Reduction of the population (%): 100%
[11]; [19]
  Reduction of the population (%): 100%
[12]; 1666 ppm, oranges refrigerated for 28 days at 5° C., 200 fruits not inoculated
  % of fruit affected: 10%
[12]; specified doses, end of the refrigeration period (28 days at 5° C.)
  reduction of the quantity of fruit affected compared to the untreated fruit: 50%

— US20090018194A1, “Use of antimicrobial agents derived from alliaceous plants for the prevention and control of crop diseases, post-harvest rot and as environmental disinifectant products” (DMC Research Center, S.L., priority 2007, published 2009)
